Laboratory results reported in patent US9169217B2, “Arylalkyl esters of 4-amino-6-(substituted phenyl)-picolinates and 6-amino-2-(substituted phenyl)-pyrimidinecarboxylates and their use as selective herbicides for crops” (Dow AgroSciences LLC, priority 2011, dated 2015).

Key:
Assay type in all cases: in vivo
[1] = test system: Ipomoea hederacea (Morningglory, ivyleaf); test: General postemergence herbicidal activity (Example 13); conditions: post-emergent spray, 14 DAA
Protocol: Seeds or nutlets of the desired test plant species were planted in Sun Gro Metro-Mix® 360 planting mixture, which typically has a pH of 6.0 to 6.8 and an organic matter content of about 30 percent, in plastic pots with a surface area of 84.6 square centimeters (cm^2). When required to ensure good germination and healthy plants, a fungicide treatment and/or other chemical or physical treatment was applied. The plants were grown for 7-31 days (d) in a greenhouse with an approximate 15 hour (h) photoperiod which was maintained at about 23-29° C. during the day and 22-28° C. during the night. Nutrients and water were added on a regular basis and supplemental lighting was provided with overhead metal halide 1000-Watt lamps as necessary. The plants were employed for testing when they reached the first or second true leaf stage.
Treatments consisted of esters of compounds 33 and 39 and F and G. Compound F is methyl 6-amino-2-(4-chloro-2-fluoro-3-methoxyphenyl)-5-methoxypyrimidine-4-carboxylate; and compound G is methyl 4-amino-3-chloro-6-(4-chloro-2-fluoro-3-methoxyphenyl)picolinate. A weighed amount, determined by the highest rate to be tested, of each test compound was placed in a 25 mL glass vial and was dissolved in 4 mL of a 97:3 v/v (volume/volume) mixture of acetone and dimethyl sulfoxide (DMSO) to obtain concentrated stock solutions. […] The concentrated stock solutions obtained were diluted with 20 mL of an aqueous mixture containing acetone, water, isopropyl alcohol, DMSO, Atplus 411F crop oil concentrate, and Triton® X-155 surfactant in a 48.5:39:10:1.5:1.0:0.02 v/v ratio to obtain spray solutions containing the highest application rates. Additional application rates were obtained by serial dilution of 12 mL of the high rate solution into a solution containing 2 mL of a 97:3 v/v (volume/volume) mixture of acetone and DMSO and 10 mL of an aqueous mixture containing acetone, water, isopropyl alcohol, DMSO, Atplus 411F crop oil concentrate, and Triton® X-155 surfactant in a 48.5:39:10:1.5:1.0:0.02 v/v ratio to obtain ½×, ¼×, ⅛× and 1/16× rates of the high rate. Compound requirements are based upon a 12 mL application volume at a rate of 187 liters per hectare (L/ha). Formulated compounds were applied to the plant material with an overhead Mandel track sprayer equipped with 8002E nozzles calibrated to deliver 187 L/ha over an application area of 0.503 square meters (m^2) at a spray height of 18 inches (43 cm) above the average plant canopy height. Control plants were sprayed in the same manner with the solvent blank.
The treated plants and control plants were placed in a greenhouse as described above and watered by sub-irrigation to prevent wash-off of the test compounds. After 14 d, the condition of the test plants as compared with that of the untreated plants was determined visually and scored on a scale of 0 to 100 percent where 0 corresponds to no injury and 100 corresponds to complete kill.

[2] = test system: Cirsium arvense (Thistle, Canada); test: Postemergence herbicidal activity in cereal crops (Example 14); conditions: wheat cropping systems, postemergence spray, 21 DAA
Protocol: (§1) Seeds of the desired test plant species were planted in Sun Gro Metro-Mix® 360 planting mixture, which typically has a pH of 6.0 to 6.8 and an organic matter content of about 30 percent, in plastic pots with a surface area of 84.6 cm^2. When required to ensure good germination and healthy plants, a fungicide treatment and/or other chemical or physical treatment was applied. The plants were grown for 7-36 d in a greenhouse with an approximate 14 h photoperiod which was maintained at about 18° C. during the day and 17° C. during the night. Nutrients and water were added on a regular basis and supplemental lighting was provided with overhead metal halide 1000-Watt lamps as necessary. The plants were employed for testing when they reached the second or third true leaf stage.
(§2) Treatments consisted of esters of compounds 33, 34, 39, 40 and 42 and B, F, G and H. Compound B is methyl 4-amino-3-chloro-6-(4-cyclopropylphenyl)-5-fluoropicolinate; compound F is methyl 6-amino-2-(4-chloro-2-fluoro-3-methoxyphenyl)-5-methoxypyrimidine-4-carboxylate; compound G is methyl 4-amino-3-chloro-6-(4-chloro-2-fluoro-3-methoxyphenyl)picolinate; and compound H is methyl 4-amino-3-chloro-6-(4-chloro-2-fluoro-3-(1-fluoroethyl)phenyl)-5-fluoropicolinate. A weighed amount, determined by the highest rate to be tested, of each test compound was placed in a 25 mL glass vial and was dissolved in 8 mL of a 97:3 v/v mixture of acetone and DMSO to obtain concentrated stock solutions. […] The concentrated stock solutions obtained were diluted with 16 mL of an aqueous mixture containing acetone, water, isopropyl alcohol, DMSO, Agri-dex crop oil concentrate, and Triton® X-77 surfactant in a 64.7:26.0:6.7:2.0:0.7:0.01 v/v ratio to obtain spray solutions containing the highest application rates. Additional application rates were obtained by serial dilution of 12 mL of the high rate solution into a solution containing 4 mL of a 97:3 v/v mixture of acetone and DMSO and 8 mL of an aqueous mixture containing acetone, water, isopropyl alcohol, DMSO, Agri-dex crop oil concentrate, and Triton® X-77 surfactant in a 48.5:39.0:10.0:1.5:1.0:0.02 v/v ratio to obtain ½×, ¼×, ⅛× and 1/16× rates of the high rate. Compound requirements are based upon a 12 mL application volume at a rate of 187 L/ha. Formulated compounds were applied to the plant material with an overhead Mandel track sprayer equipped with 8002E nozzles calibrated to deliver 187 L/ha over an application area of 0.503 m^2 at a spray height of 18 inches (43 cm) above average plant canopy height. Control plants were sprayed in the same manner with the blank.
(§3) The treated plants and control plants were placed in a greenhouse as described above and watered by sub-irrigation to prevent wash-off of the test compounds. After 20-22 d, the condition of the test plants as compared with that of the untreated plants was determined visually and scored on a scale of 0 to 100 percent where 0 corresponds to no injury and 100 corresponds to complete kill.

Kochia scoparia (Kochia) = test: as above; conditions: wheat cropping systems, postemergence spray, 35 g ae/ha, 21 DAA
Protocol: as §1, §2, §3

[3] = test system: Salsola kali (Thistle, Russian); test: as above; conditions: wheat cropping systems, postemergence spray, 35 g ae/ha, 21 DAA
Protocol: as §1, §2, §3

[4] = 35 g ai/ha, 0 = no injury, 100 = complete kill

COC(=O)c1nc(-c2ccc(Cl)c(OC)c2F)nc(N)c1OC [Compound F, methyl 6-amino-2-(4-chloro-2-fluoro-3-methoxyphenyl)-5-methoxypyrimidine-4-carboxylate, reference compound]
Visual Injury (%) IPOHE ([1]; 70 g ai/ha): 80%

COC(=O)c1nc(-c2ccc(Cl)c(OC)c2F)cc(N)c1Cl [Compound G, methyl 4-amino-3-chloro-6-(4-chloro-2-fluoro-3-methoxyphenyl)picolinate, reference compound]
Visual Injury (%) IPOHE ([1]; 8.75 g ai/ha): 40% | Visual Injury (%) IPOHE ([1]; 17.5 g ai/ha): 50% | Visual Injury (%) IPOHE [1, 4]: 65% | Visual Injury (%) CIRAR ([2]; 8.75 g ae/ha): 70% | Visual Injury (%) CIRAR ([2]; 17.5 g ae/ha): 80% | Visual Injury (%) KCHSC (Kochia scoparia (Kochia)): 87% | Visual Injury (%) SASKR [3]: 80%

COc1c(Cl)ccc(-c2cc(N)c(Cl)c(C(=O)OCc3ccccc3)n2)c1F [Compound 39]
Visual Injury (%) IPOHE ([1]; 8.75 g ai/ha): 70% | Visual Injury (%) IPOHE ([1]; 17.5 g ai/ha): 75% | Visual Injury (%) IPOHE [1, 4]: 80% | Visual Injury (%) CIRAR ([2]; 8.75 g ae/ha): 90% | Visual Injury (%) CIRAR ([2]; 17.5 g ae/ha): 95% | Visual Injury (%) KCHSC (Kochia scoparia (Kochia)): 95% | Visual Injury (%) SASKR [3]: 90%
